Measured values: patent US11634443B2, “Treprostinil prodrugs” (United Therapeutics Corporation, priority 2019, dated 2023)

Key:
PGE2 receptor 1 (EP1) = molecular target: T1, PGE2 receptor 1 (EP1) (Homo sapiens, UniProt P34995); experiment: EP1 receptor calcium assay (agonist mode); assay type: cell-based; settings: Table 24; relative to treprostinil EC50 values; * partial agonists or ambiguous dose-response curves; image character = too high to realistically calculate
T1 construct: expressed in transfected cells; host or cells: HEK293T
T1 sequence (P34995 1-402): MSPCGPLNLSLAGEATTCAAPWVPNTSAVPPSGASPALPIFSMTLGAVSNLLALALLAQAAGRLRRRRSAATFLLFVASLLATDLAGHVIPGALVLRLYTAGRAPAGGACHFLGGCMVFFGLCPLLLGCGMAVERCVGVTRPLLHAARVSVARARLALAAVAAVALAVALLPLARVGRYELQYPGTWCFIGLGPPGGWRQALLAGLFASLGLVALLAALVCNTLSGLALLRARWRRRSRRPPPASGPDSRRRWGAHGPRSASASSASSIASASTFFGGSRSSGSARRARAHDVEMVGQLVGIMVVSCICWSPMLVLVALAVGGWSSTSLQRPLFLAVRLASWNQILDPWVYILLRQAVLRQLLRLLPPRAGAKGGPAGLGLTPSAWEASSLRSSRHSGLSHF
Method: Assay Buffer: • EP1 Calcium and DP1 cAMP Assays: HBSS plus 20 mM HEPES • EP2 and IP1 cAMP Assays: 1 mM IBMX in HBSS plus 20 mM HEPES
Cells were thawed from frozen cells and resuspended in assay buffer at desired concentrations. cAMP or Calcium assays were performed according to the manufacturer's protocol using Multiscreen™ TR-FRET cAMP 1.0 No Wash Assay Kit or Multiscreen™ Calcium 1.0 No Wash Kit.
Calcium Assay: Cells were seeded in a 384-well plate at an appropriate density. The calcium assay was conducted according to the manufacturer's protocols (Multiscreen Calcium 1.0 No Wash Assay Kit). The calcium dye loading buffer was added to the cells and incubated for 1 hour at 37° C. For agonist mode, cells were injected with Iloprost control agonist or test compound by FLIPR and calcium mobilization was monitored for 180 seconds with compound injected into the wells at the 19th second. Fluorescent emissions were read at 525 nm with excitation at 490 nm in a FLIPR 384 instrument (Molecular Devices).
Calcium Assay: Calcium assay results are expressed as “RFU” as defined in figure below. Data are represented in Mean±SEM. Dose-response curves were fitted using “Sigmoidal dose-response (variable slope)” function in GraphPad Prism 6. EC50 values were calculated based on the fitted curves.
Prostaglandin receptor activity assessments with treprostinil and treprostinil analogues have been conducted, and a historical, positive control agonist for these receptors, iloprost (for IP, EP2 and EP1) or PGD2 (for DP1), was also included. These studies used cell lines overexpressing either human IP, EP2 or DP1, or EP1 receptors, and following incubation with varying concentrations of compounds, cAMP levels were measured using Fluorescence Resonance Energy Transfer (FRET). The 665/620 (acceptor/donor emission signals) ratio is inversely proportional to the concentration of cAMP.

[1] = Stability and formation of treprostinil in dog cryopreserved hepatocytes
[2] = molecular target: T2, prostaglandin I2 (PGI2) receptor (IP) (Homo sapiens, UniProt P43119); experiment: IP receptor cAMP assay (agonist mode); assay type: cell-based; settings: for Activity, IP Relative to Tre: relative to treprostinil EC50 values, image character = too high to realistically calculate
T2 construct: expressed in transfected cells; host or cells: CHO-K1
T2 sequence (P43119 whole entry): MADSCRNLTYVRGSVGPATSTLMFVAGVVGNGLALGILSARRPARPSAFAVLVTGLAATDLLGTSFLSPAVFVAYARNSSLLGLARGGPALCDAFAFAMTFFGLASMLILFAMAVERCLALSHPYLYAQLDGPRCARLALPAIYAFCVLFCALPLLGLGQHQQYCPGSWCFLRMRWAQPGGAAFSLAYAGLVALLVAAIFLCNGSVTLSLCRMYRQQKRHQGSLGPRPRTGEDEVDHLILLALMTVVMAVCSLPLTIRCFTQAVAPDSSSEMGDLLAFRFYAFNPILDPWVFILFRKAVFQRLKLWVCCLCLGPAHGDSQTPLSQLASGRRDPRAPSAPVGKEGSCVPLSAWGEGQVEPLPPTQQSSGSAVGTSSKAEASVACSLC
Method: (§2) Gas Cyclic AMP (cAMP) Assay: In agonist mode testing, cells were seeded in a 384-well plate at an appropriate density and then were treated with compounds and incubated at 37° C. for 20 minutes. The reaction was terminated by sequentially adding sequentially adding trFluor™ Eu-labeled cAMP and trFluor™ 650-labeled anti-cAMP antibody in lysis buffer. […] All testing wells contained 0.1% DMSO in the final concentrations.
(§3) Data in graphs are represented in Mean±SD. Dose-dependent responses were fitted with sigmoidal dose-response curves allowing variable slopes using GraphPad Prism version 6 (Graphpad Prism).

[3] = molecular target: T3, prostaglandin E2 (PGE2) receptor 2 (EP2) (Homo sapiens, UniProt P43116); experiment: EP2 receptor cAMP assay (agonist mode); assay type: cell-based; settings: for Activity, EP2 Relative to Tre: Table 24, relative to treprostinil EC50 values, * partial agonists or ambiguous dose-response curves, image character = too high to realistically calculate
T3 construct: expressed in transfected cells; host or cells: HEK293T
T3 sequence (P43116 whole entry): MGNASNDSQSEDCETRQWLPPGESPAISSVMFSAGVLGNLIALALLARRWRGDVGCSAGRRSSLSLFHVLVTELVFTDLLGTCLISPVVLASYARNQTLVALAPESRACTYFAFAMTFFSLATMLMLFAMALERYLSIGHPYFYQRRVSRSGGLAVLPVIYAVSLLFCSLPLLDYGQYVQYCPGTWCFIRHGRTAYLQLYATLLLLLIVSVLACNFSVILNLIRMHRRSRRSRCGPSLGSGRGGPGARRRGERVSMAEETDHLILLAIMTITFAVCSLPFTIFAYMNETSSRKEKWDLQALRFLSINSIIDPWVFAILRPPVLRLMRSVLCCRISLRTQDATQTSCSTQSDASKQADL
Method: as §2, §3

[4] = Stability and formation of treprostinil in rat cryopreserved hepatocytes
[5] = molecular target: T4, prostaglandin D2 (PGD2) receptor 1 (DP1) (Homo sapiens, UniProt Q13258); experiment: DP1 receptor cAMP assay (agonist mode); assay type: cell-based; settings: for Activity, DP1 Relative to Tre: relative to treprostinil EC50 values, * partial agonists or ambiguous dose-response curves
T4 construct: expressed in transfected cells; host or cells: HEK293T
T4 sequence (Q13258 1-359): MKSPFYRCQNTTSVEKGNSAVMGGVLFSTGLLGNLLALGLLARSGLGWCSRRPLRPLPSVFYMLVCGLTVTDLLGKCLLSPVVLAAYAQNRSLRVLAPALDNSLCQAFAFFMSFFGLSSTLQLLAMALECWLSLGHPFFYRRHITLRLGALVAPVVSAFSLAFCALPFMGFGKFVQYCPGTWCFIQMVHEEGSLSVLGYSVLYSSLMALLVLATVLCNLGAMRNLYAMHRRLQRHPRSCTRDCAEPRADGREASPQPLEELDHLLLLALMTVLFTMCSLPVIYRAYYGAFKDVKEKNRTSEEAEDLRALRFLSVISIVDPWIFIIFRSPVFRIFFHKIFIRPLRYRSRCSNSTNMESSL
Method: as §2, §3

[6] = Stability and formation of treprostinil in human cryopreserved hepatocytes
[7] = Measured solubility at pH 6.5; assay type: physicochemical
[8] = Plasma stability and formation of treprostinil, rat plasma; assay type: in vitro ADME; settings: prodrug dosed at 1 μM
Method: (§1) Studies were carried out in mixed-gender human plasma male Sprague-Dawley rat plasma, and male Beagle dog plasma. All plasma was obtained from Bioreclamation and collected on K2EDTA. Plasma was adjusted to pH 7.4 prior to initiating the experiments. DMSO stocks were first prepared for the test articles. […] The vials were kept in a benchtop Thermomixer® for the duration of the experiment. […] Samples were stored at 4° C. until the end of the experiment. After the final time point was sampled, the plate was mixed and then centrifuged at 3000 rpm for 10 minutes.

[9] = Stability and formation of treprostinil in human subcutaneous skin homogenate; settings: pooled human skin homogenate, 1 μM
Method: For each of the test articles, 495 μL of skin homogenate was added to triplicate centrifuge tubes. To each tube, 5 μL of a 100 μM solution of test article was added, for a final test article dosing concentration of 1 μM. The tubes were placed onto a Thermomixer and maintained at 37° C. with gentle shaking for the duration of the experiment. At each time point (0, 30, 60, and 120 minutes), a 100 μL aliquot was removed from each tube and combined with 200 μL of acetonitrile to stop the stability reaction. The tubes were mixed and centrifuged at 3000 rpm for 10 minutes. Aliquots of supernatant were removed and diluted 1:1 with distilled water containing internal standard (2 μM treprostinil-d4). Calibration standards for the treprostinil analysis were prepared for each test article in a surrogate matrix (supernatant from a mixture of 1:2 human plasma:acetonitrile), at concentrations ranging from 1 μM to 1 nM. Calibration standards were also diluted 1:1 with distilled water containing internal standard.

[10] = Hydrolysis of treprostinil prodrugs to treprostinil at pH 6, 7 and 8 and 40 C; assay type: physicochemical
Source text: Tables 26, 27 and 28 present data for hydrolysis of selected treprostinil prodrugs at pH 6, 7 and 8, respectively, and 40 C.

[11] = Plasma stability and formation of treprostinil, dog plasma; assay type: in vitro ADME; settings: prodrug dosed at 1 μM
Method: as §1

[12] = Plasma stability and formation of treprostinil, human plasma; assay type: in vitro ADME; settings: prodrug dosed at 1 μM
Method: as §1

[13] = Table 24, * partial agonists or ambiguous dose-response curves
[14] = Table 24, image character = too high to realistically calculate

CCCCC[C@@H](CC[C@@H]1[C@H]2Cc3cccc(OCC(=O)O)c3C[C@H]2C[C@H]1O)OC(=O)CC [Prodrug LV, treprostinil side chain propionic ester]
Activity, EP1 Relative to Tre (PGE2 receptor 1 (EP1)): 122x* | Treprostinil Concentration, 0 min [1]: 0.124 µM | Treprostinil Concentration, 15 min [1]: 0.781 µM | Treprostinil Concentration, 30 min [1]: 0.698 µM | Treprostinil Concentration, 60 min [1]: 0.599 µM | Treprostinil Concentration, 120 min [1]: 0.53 µM | Activity, IP Relative to Tre [2, 13]: 54x | Activity, EP2 Relative to Tre [3]: 50x | Treprostinil Concentration, 0 min [4]: 0.0159 µM | Treprostinil Concentration, 15 min [4]: 0.506 µM | Treprostinil Concentration, 30 min [4]: 0.48 µM | Treprostinil Concentration, 60 min [4]: 0.424 µM | Treprostinil Concentration, 120 min [4]: 0.391 µM | Activity, DP1 Relative to Tre [5, 14]: 94x | Treprostinil Concentration, 0 min [6]: 0.113 µM | Treprostinil Concentration, 15 min [6]: 0.725 µM | Treprostinil Concentration, 30 min [6]: 0.654 µM | Treprostinil Concentration, 60 min [6]: 0.589 µM | Treprostinil Concentration, 120 min [6]: 0.527 µM

CCCCC[C@H](O)CC[C@@H]1[C@H]2Cc3cccc(OCC(=O)OCC)c3C[C@H]2C[C@H]1O [Treprostinil ethyl ester]
Activity, EP1 Relative to Tre (PGE2 receptor 1 (EP1)): 30x | Activity, IP Relative to Tre [2, 13]: 35x | Activity, EP2 Relative to Tre [3]: 11x | Activity, DP1 Relative to Tre [5, 14]: 18x

CCCCC[C@@H](CC[C@@H]1[C@H]2Cc3cccc(OCC(=O)O)c3C[C@H]2C[C@H]1O)OP(=O)(O)O [VI]
Measured Sol [7]: > 10 mg/mL

CCCCC[C@@H](CC[C@@H]1[C@H]2Cc3cccc(OCC(=O)O)c3C[C@H]2C[C@H]1O)OC(=O)OC(C)C [XVII]
Measured Sol [7]: 10 mg/mL

CCCCC[C@@H](CC[C@@H]1[C@H]2Cc3cccc(OCC(=O)O)c3C[C@H]2C[C@H]1O)OC(=O)OCC [XVI]
Measured Sol [7]: 10 mg/mL

treprostinil diphosphate [Prodrug LXXIII]
Treprostinil Concentration, 15 min [1]: 0.0506 µM | Formation of Treprostinil, Concentration ([8]; 0 min): 0 µM | Formation of Treprostinil, Concentration ([8]; 60 mm): 0 µM | Formation of Treprostinil, Concentration ([8]; 15 min): 0 µM | Formation of Treprostinil, Concentration ([8]; 30 min): 0 µM | Formation of Treprostinil, Concentration ([8]; 120 min): 0 µM | Percent Remaining (Avg, n = 3) ([9]; 0 min): 100% | Percent Remaining (Avg, n = 3) ([9]; 30 min): 86.2% | Percent Remaining (Avg, n = 3) ([9]; 60 min): 71.2% | Percent Remaining (Avg, n = 3) ([9]; 120 min): 64.0% | Activity, IP Relative to Tre [2, 13]: 208x | Activity, IP Relative to Tre ([2]; Table 25): 208x | Fold less active than treprostinil at the IP receptor ([2]; cAMP, cells overexpressing human IP): approximately 200 fold | Activity at the EP2 receptor compared to treprostinil ([3]; cAMP, cells overexpressing human EP2): inactive | Treprostinil Concentration, 15 min [4]: 0.0097 µM | Hydrolysis of prodrug to treprostinil, % Area, t = 1 week ([10]; pH 6, 40 C): 0.00 % Area | Hydrolysis of prodrug to treprostinil, % Area, t = 2 weeks ([10]; pH 6, 40 C): 0.00 % Area | Hydrolysis of prodrug to treprostinil, % Area, t = 3 weeks ([10]; pH 6, 40 C): 0.00 % Area | Hydrolysis of prodrug to treprostinil, % Area, t = 1 week ([10]; pH 7, 40 C): 0.00 % Area | Hydrolysis of prodrug to treprostinil, % Area, t = 2 weeks ([10]; pH 7, 40 C): 0.00 % Area | Hydrolysis of prodrug to treprostinil, % Area, t = 3 weeks ([10]; pH 7, 40 C): 0.00 % Area | Hydrolysis of prodrug to treprostinil, % Area, t = 1 week ([10]; pH 8, 40 C): 0.00 % Area | Hydrolysis of prodrug to treprostinil, % Area, t = 2 weeks ([10]; pH 8, 40 C): 0.00 % Area | Hydrolysis of prodrug to treprostinil, % Area, t = 3 weeks ([10]; pH 8, 40 C): 0.00 % Area | Formation of Treprostinil, Concentration ([11]; 0 min): 0 µM | Formation of Treprostinil, Concentration ([11]; 15 min): 0 µM | Formation of Treprostinil, Concentration ([11]; 30 min): 0 µM | Formation of Treprostinil, Concentration ([11]; 120 min): 0 µM | Formation of Treprostinil, Concentration [11]: 0 µM | Activity, DP1 Relative to Tre [5, 14]: 217x | Activity, DP1 Relative to Tre ([5]; Table 25): 217x | Activity at the DP1 receptor compared to treprostinil ([5]; cAMP, cells overexpressing human DP1): several hundred-fold less active | Formation of Treprostinil, Concentration ([12]; 0 min): 0 µM | Formation of Treprostinil, Concentration ([12]; 15 min): 0 µM | Formation of Treprostinil, Concentration ([12]; 30 min): 0 µM | Formation of Treprostinil, Concentration ([12]; 120 min): 0 µM | Formation of Treprostinil, Concentration [12]: 0 µM | Treprostinil Concentration, 15 min [6]: 0.0163 µM
